{"source": "patent US6610699B2", "about": "“Use of L-carnitine and its alkanoyl derivatives in the preparation of medicaments with anticancer activity” (Sigma-Tau Industrie Farmaceutiche Riunite S.p.A., priority 1998, dated 2003)", "key": {"M109 murine lung cancer [1]": {"system": "M109 murine lung cancer", "conditions": "for Size of metastases / number of lung metastases (Mean ± SD): day 22 after inoculation", "description": "The animals were kept under observation up to day 22 after inoculation of the M109 murine lung cancer cells, and were then sacrificed the lungs removed to determine the number of metastases.\nDetermination of the number of lung metastases: on day 22 after inoculation of M109 murine lung cancer, the study animals were sacrificed by cervical dislocation. Their lungs were then removed and kept for approximately 5-7 days in 5 ml of Bouin's solution with the following composition: 71% as saturated picric acid solution (Merck), and 24% as 10% formaldehyde (Fluka). When lung metastases were evident, their numbers were counted.\nStatistical analysis of the data for tumour size and number of lung metastases was carried out using the non-parametric Mann-Whitney test for unpaired data."}, "female BALB/c mice": {"system": "female BALB/c mice", "test": "Taxol (i.p.)-induced neutropenia in the mouse, blood cell count", "experimental": "In this model, the amount of circulating neutrophils was measured.\nAcetyl L-carnitine inner salt (sterile ampoule), solubilised in water for injectable preparations, was used. Each ampoule of ALC is dissolved in 4 ml of water for injections (Solution O). Two ml of (O) are brought up to 25 ml with sterile PBS (Sigma), so as to have 10 mg/ml for subcutaneous administration (100 mg/kg/ 10 ml); 0.8 ml of (O) are brought to 50 ml with PBS in order to have 2 mg/ml for oral administration (100 mg/kg/50 ml).\nAt the time of use, the 12 mg/ml solution is diluted 1:4 with saline in phosphate buffer (PBS) (SIGMA,) and injected i.p. (30 mg/kg/10 ml).\nThe mice are anaesthetised with CO2; blood is taken from the retro-orbital plexus (0.5 ml blood/mouse) and placed in Eppendorf test tubes containing 10 μl of Vister heparin (5000 U/ml). The animals are sacrificed by cervical dislocation. Later, the bone marrow samples are taken.\nThe instrument is used according to the instructions provided in the operating manual. The blood (25 μl) is taken from the dilutor and brought to a volume of 10 ml with isotonic solution (PLTA Saline, Delcon) in a beaker (dil. 1:400) (Solution A). From Solution A, the dilutor takes 100 μl and brings them to 10 ml (dil. 1:100) in another beaker (Solution B). To Solution A are added 3 drops of lysing agent (Emosol, Delcon), the solution is mixed by hand and left to act for approximately 2 minutes so that the red blood cells are lysed and HGB (haemoglobin) released. Solution A containing the lysing agent is used for the WBC and haemoglobin (HGB) readings. Solution B is used for the RBC and platelet (PLT) readings.\nDouble readings are done on each sample, and between one sample and the next, the instrument is washed using isotonic solution,\nSuperfrost plus slides (25×75×1 mm) (Mensel-Glaser), ready for use, are adopted. The blood (8 μl) is deposited on the right-hand side of the slide; another slide, placed at a 45° angle, to the left of the blood, is drawn back until in comes into contact with the drop which spreads rapidly along the contact line between the two slides; the slide is moved forwards with a smooth, rapid movement so as to obtain a thin film of blood. The slide is left to dry in air, stained with Diff-Quick (DADE) dye, according to the attached instructions, and dried again in air.\nThe slides are immersed in Histolemon solution (Carlo Erba) for 2 sec.; a drop of synthetic mountant (Shandon) os deposited at the centre of the slide and a cover slide is placed over it covering the entire blood smear, taking care not to form bubbles between the two slides. The slides are dried and then the WBC count is performed, up to 100, with an optical microscope, after depositing a drop of cedar oil on the slide.\nThe quantity of […], assessed using the haemocytometer, is multiplied by the percentage value of the corresponding neutrophil granulocytes of the leukocyte formula. This parameter, divided by 100, expresses the value of neutrophils/mm^3 blood.\nData are expressed as means ±SE. Comparison between the neutrophil granulocyte values obtained for the different groups is done using ANOVA. Abnormal values are subjected to the Dixon test."}, "M109 murine lung cancer [2]": {"system": "M109 murine lung cancer", "test": "Growth of M109 murine lung cancer in BALB/c mice", "type": "in vivo, mouse", "conditions": "for Tumour size, Day 8 / Tumour size, Day 11 / Tumour size, Day 13 / Tumour size, Day 15 / Tumour size, Day 20: taxol 30 mg/kg i.p., ALC 100 mg/kg os; for Tumour size, Day 8: day 8 post-inoculation; for Tumour size, Day 11: day 11 post-inoculation; for Tumour size, Day 13: day 13 post-inoculation; for Tumour size, Day 15: day 15 post-inoculation; for Tumour size, Day 20: day 20 post-inoculation", "experimental": "Each ampoule of ALC is dissolved in 4 ml of the solvent provided (solution O). To be precise, 1.6 ml of solution O are brought to 40 ml with sterile buffer solution (PBS, Sigma P-4417) and then administered orally (100 mg/kg/20 ml).\nAt the time of use, the 12 mg/ml solution is diluted 1:4 with saline in phosphate buffer (PBS) (SIGMA,) and injected i.p. (30 mg/kg/ 10 ml).\nAnimals: 60 female Balb/c mice weighing 18 g (Harlan).\nM109 tumour cells isolated from solid tumour.\nThe procedure described by Kedar E., B. Ikejiri, G. D. Bannard and R. B. Herberman (Eur. J. Cancer Clin. Oncol. 18; 991: 1982) is adopted with modifications. One Balb/c mouse (donor) was sacrificed by cervical dislocation, and after washing its back with denatured alcohol, the dorsal skin was cut longitudinally into two flaps which were detached to remove the tumour mass. The latter was placed on sterile gauze, where it was freed of connective tissue adhesions and of the necrotic and haemorrhagic parts. The study tissue was placed in a plate containing PBS with Ca^++ and Mg^++ (Gibco) at pH 7.2 and cold, broken down into pieces measuring 2-3 mm and re-suspended in a solution (15 ml solution/g tumour) of PBS with Ca^++ and Mg^++, pH 7.2m containing 2 mg/ml trypsin (type III. 10000 U/mg protein, Sigma-Aldrich), 2 mg/ml collagenase (type I-S 180 U/mg solid, Sigma), 0.2 mg/ml DNAse (type I 1548 U/mg protein. Sigma) and 25 μg/ml gentamicin (Sigma) and incubated at 37° C. for 15 minutes under constant stirring. The cell suspension was then homogenised with the aid of a potter (B. Braun) for 2 minutes, incubated at 37° C. for 10 minutes and aspirated gently a number of times with a syringe with a No. 21 sterile needle. After addition of 30 ml of RPMI-1640 (Eurobio) containing 10% FBS (Eurobio) maintained at 4° C. the cell suspension was filtered on sterile gauze and then centrifuged at 700 g for 10 minutes. The cell pellet was re-suspended gently in RPMI-1640 containing 10% FBS and 0.2 mg/ml DNAse (Sigma) and then centrifuged at 700 g for 10 minutes. The pellet was consecutively subjected to two washings with RPMI-1640; at the end of the last washing, the pellet was re-suspended gently in RPMI-1640 so as to perform the count to establish the cell concentration.\nInoculation conditions: 60 unanaesthetised Balb/c mice weighing approximately 18 g (Harlan) received i.m. injections of 3×10^5 M109 lung cancer cells in 0.1 ml of RPMI-1640 (Sigma) in the right rear paw.\nTreatment schedule: for the purposes of evaluating tumour size in the experimental study groups, each consisting of 15 Balb/c mice, 3×10^5 M109 lung cancer cells were inoculated, and the study molecules were administered at the scheduled times. […] The vehicle diluted 1:4 with PBS from the mother solution was administered i.p. on days 8, 10, 12 and 14.\nThe tumour mass is calculated on the basis of the measurements of the two dimensions (length and width), expressed in mm. according to the following formula: [formula]\nIf we consider conventionally a tumour density equal to 1, the result is that the tumour volume expressed in mm^3 is equal to the weight of the tumour expressed in mg."}, "[3]": {"conditions": "6 hours after last administration (Table 4)"}, "[4]": {"conditions": "taxol 30 mg/kg i.p. x4, ALC 100 mg/kg, sacrifice 6 hours after last taxol administration"}, "[5]": {"conditions": "taxol 30 mg/kg i.p. x4 on alternate days, ALC 100 mg/kg, sacrifice 6 hours after last taxol administration"}, "[6]": {"conditions": "taxol i.p., sacrifice 3 days after last taxol administration"}, "[7]": {"conditions": "three days after last administration (Table 5)"}}, "data": [{"smiles": "CC(=O)O[C@H](CC(=O)[O-])C[N+](C)(C)C", "note": "[ALC, acetyl L-carnitine]", "values": [{"measurement": "effect on the formation of lung metastases (in words)", "setting": "M109 murine lung cancer [1]; ALC 100 mg/kg os", "result": "mild inhibitory effect"}, {"measurement": "changes in neutrophils compared to vehicle alone or untreated animals (in words)", "setting": "female BALB/c mice; [3]", "result": "no changes"}, {"measurement": "polymorphonucleates, change under taxol with acetyl L-carnitine", "setting": "female BALB/c mice; acetyl L-carnitine 100 mg/kg oral (os) with taxol 30 mg/kg i.p. x4", "result": "−23", "unit": "%"}, {"measurement": "polymorphonucleates, change under taxol with acetyl L-carnitine", "setting": "female BALB/c mice; acetyl L-carnitine 100 mg/kg subcutaneous (sc) with taxol 30 mg/kg i.p. x4", "result": "8-43%"}, {"measurement": "Absolute neutrophils", "setting": "female BALB/c mice; [4]", "result": "708 ± /mm^3"}, {"measurement": "Lymphocytes", "setting": "female BALB/c mice; [4]", "result": 88.7, "unit": "%"}, {"measurement": "Neutrophils", "setting": "female BALB/c mice; [4]", "result": 11.2, "unit": "%"}, {"measurement": "WBC", "setting": "female BALB/c mice; [5]", "result": 6452, "unit": "Mm^3"}, {"measurement": "Absolute neutrophils", "setting": "female BALB/c mice; [6]", "result": "691 ± /mm^3"}, {"measurement": "Lymphocytes", "setting": "female BALB/c mice; [6]", "result": 89.9, "unit": "%"}, {"measurement": "Neutrophils", "setting": "female BALB/c mice; [6]", "result": 10.1, "unit": "%"}, {"measurement": "WBC", "setting": "female BALB/c mice; [6]", "result": 6920, "unit": "Mm^3"}, {"measurement": "changes in neutrophils compared to vehicle alone or untreated animals (in words)", "setting": "female BALB/c mice; [7]", "result": "no changes"}, {"measurement": "effect on the anticancer action of taxol, inhibition of the tumour mass (in words)", "setting": "M109 murine lung cancer [2]; ALC 100 mg/kg os with taxol 30 mg/kg i.p.", "result": "does not interfere with the anticancer action of taxol"}]}, {"smiles": "CC(=O)O[C@H]1C(=O)[C@@]2(C)[C@H]([C@H](OC(=O)c3ccccc3)[C@]3(O)C[C@H](OC(=O)[C@H](O)[C@@H](NC(=O)c4ccccc4)c4ccccc4)C(C)=C1C3(C)C)[C@]1(OC(C)=O)CO[C@@H]1C[C@@H]2O", "note": "[Taxol, paclitaxel, reference compound]", "values": [{"measurement": "Size of metastases", "setting": "M109 murine lung cancer [1]", "result": "S (S = Small (<1 mm diam))"}, {"measurement": "number of lung metastases (Mean ± SD)", "setting": "M109 murine lung cancer [1]", "result": "**9 ± 7.3"}, {"measurement": "neutrophil granulocytes vs vehicle", "setting": "female BALB/c mice; mouse, in vivo", "result": "−64", "unit": "%"}, {"measurement": "reduction in neutrophils", "setting": "female BALB/c mice; mouse, in vivo", "result": 98, "unit": "%"}, {"measurement": "Absolute neutrophils", "setting": "female BALB/c mice; mouse, in vivo, ip", "result": "****250 ± /mm^3"}, {"measurement": "Lymphocytes", "setting": "female BALB/c mice; mouse, in vivo, ip", "result": 95.5, "unit": "%"}, {"measurement": "Neutrophils", "setting": "female BALB/c mice; mouse, in vivo, ip", "result": 4.5, "unit": "%"}, {"measurement": "WBC", "setting": "female BALB/c mice; mouse, in vivo, ip", "result": 5855, "unit": "Mm^3"}, {"measurement": "Tumour size, Day 8", "setting": "M109 murine lung cancer [2]", "result": 539, "unit": "mm^3"}, {"measurement": "Tumour size, Day 11", "setting": "M109 murine lung cancer [2]", "result": "662 ± mm^3"}, {"measurement": "Tumour size, Day 13", "setting": "M109 murine lung cancer [2]", "result": "622 ± mm^3"}, {"measurement": "Tumour size, Day 15", "setting": "M109 murine lung cancer [2]", "result": "857 ± mm^3"}, {"measurement": "Tumour size, Day 20", "setting": "M109 murine lung cancer [2]", "result": "1085 ± mm^3"}]}, {"smiles": "CC(=O)O[C@H](CC(=O)[O-])C[N+](C)(C)C", "note": "[Vehicle + ALC, acetyl L-carnitine]", "values": [{"measurement": "Size of metastases", "setting": "M109 murine lung cancer [1]", "result": "M, S"}, {"measurement": "number of lung metastases (Mean ± SD)", "setting": "M109 murine lung cancer [1]", "result": "**77 ± 13.2"}, {"measurement": "changes in neutrophils compared to vehicle alone or untreated animals (in words)", "setting": "female BALB/c mice; [3]", "result": "no changes"}, {"measurement": "Absolute neutrophils", "setting": "female BALB/c mice; [4]", "result": "511 ± /mm^3"}, {"measurement": "Lymphocytes", "setting": "female BALB/c mice; [4]", "result": 91.5, "unit": "%"}, {"measurement": "Neutrophils", "setting": "female BALB/c mice; [4]", "result": 8.5, "unit": "%"}, {"measurement": "WBC", "setting": "female BALB/c mice; [5]", "result": 5950, "unit": "Mm^3"}, {"measurement": "Absolute neutrophils", "setting": "female BALB/c mice; [6]", "result": "625 ± /mm^3"}, {"measurement": "Lymphocytes", "setting": "female BALB/c mice; [6]", "result": 89.2, "unit": "%"}, {"measurement": "Neutrophils", "setting": "female BALB/c mice; [6]", "result": 10.7, "unit": "%"}, {"measurement": "WBC", "setting": "female BALB/c mice; [6]", "result": 6067, "unit": "Mm^3"}, {"measurement": "changes in neutrophils compared to vehicle alone or untreated animals (in words)", "setting": "female BALB/c mice; [7]", "result": "no changes"}, {"measurement": "Tumour size, Day 8", "setting": "M109 murine lung cancer [2]", "result": 567, "unit": "mm^3"}, {"measurement": "Tumour size, Day 11", "setting": "M109 murine lung cancer [2]", "result": 959, "unit": "mm^3"}, {"measurement": "Tumour size, Day 13", "setting": "M109 murine lung cancer [2]", "result": 1289, "unit": "mm^3"}, {"measurement": "Tumour size, Day 15", "setting": "M109 murine lung cancer [2]", "result": "1779 ± mm^3"}, {"measurement": "Tumour size, Day 20", "setting": "M109 murine lung cancer [2]", "result": 2251, "unit": "mm^3"}]}]}
